Test results taken from publication PMC4070292 (Molecular nutrition & food research, 2012).

What was measured:
[1] = diet containing 0.2% pure apigenin for 7 days ref 47; cited from earlier work
[2] = tested on: TNF-α; test: LPS-induced TNF-α release in macrophages; format: cell-based, murine; conditions: 100 ng/mL LPS
[3] = tested on: NF-κB; test: NF-κB SEAP reporter gene assay in LPS-stimulated macrophages; format: cell-based, murine; conditions: 16 h; for effect on LPS-stimulated NF-κB activity: 100 ng/mL LPS, 25 μM; for effect on NF-κB activity without LPS: compound alone with diluent control; for decrease of NF-κB activity versus control / effect on LPS-induced NF-κB activity: LPS; for decrease of NF-κB activity versus control: 50 μM; for effect on LPS-induced NF-κB activity: doses as high as 100 μM
[4] = rats, 14 mg luteolin/kg body weight by gavage, after 1 h ref 48; cited from earlier work

Row | Compound | apigenin in mouse plasma [1] [nM] | effect on LPS-induced TNF-α ([2]; 8 h, doses as low as 10 μM) | effect on LPS-stimulated NF-κB activity [3] | effect on NF-κB activity without LPS [3] | peak plasma concentration [4] [µM] | decrease of NF-κB activity versus control [3] | effect on LPS-induced NF-κB activity [3] | effect on LPS-induced TNF-α ([2]; 10–25 μM, data not shown) | effect on LPS-induced TNF-α ([2]; 8 h, doses as high as 100 μM)
1 | O=c1cc(-c2ccc(O)cc2)oc2cc(O)cc(O)c12 [apigenin] | 90 | significant reduction |  |  |  |  |  |  | 
2 | O=c1cc(-c2ccc(O)c(O)c2)oc2cc(O)cc(O)c12 [luteolin] |  | significant reduction | significantly reduced | no effect | 6.9 |  |  |  | 
3 | COc1cc(-c2cc(=O)c3c(O)cc(O)cc3o2)ccc1O [chrysoeriol, Chrysoeriol] |  | significant reduction | significantly reduced | no effect |  |  |  |  | 
4 | O=c1cc(-c2ccc(O)c(O)c2)oc2cc(O[C@@H]3O[C@H](CO)[C@@H](O)[C@H](O)[C@H]3O)cc(O)c12 [luteolin 7-O-glucoside] |  |  |  | no effect |  | not statistically significant | no effect | no effect | no effect
5 | O=c1cc(-c2ccc(O)cc2)oc2cc(O[C@@H]3O[C@H](CO)[C@@H](O)[C@H](O)[C@H]3O)cc(O)c12 [apigenin 7-O-glucoside] |  |  |  | no effect |  | not statistically significant | no effect | no effect | no effect
